Measured values reported in publication PMC6277545, “Structural Basis for the Limited Response to Oxidative and Thiol-Conjugating Agents by Triosephosphate Isomerase From the Photosynthetic Bacteria Synechocystis” (Frontiers in Molecular Biosciences, 2018).

What was measured:
Format in all cases: biochemical
AtpdTPI = biological target: T1, AtpdTPI (Arabidopsis thaliana, UniProt Q9SKP6); experiment: residual activity after […] h incubation with reagent, coupled assay; details: read-out: concentration giving 50% of original activity
T1 construct: gene TIM; expression not described here

AtcTPI = biological target: T2, AtcTPI (Arabidopsis thaliana, UniProt P48491); experiment: as above; details: read-out: concentration giving 50% of original activity
T2 construct: gene CTIMC; cytosolic isoform, purified dimer; expression not described here

SyTPI [1] = biological target: T3, SyTPI (Synechocystis sp. PCC 6803, UniProt Q59994); experiment: as above; details: read-out: % activity at 0.5 mM
T3 construct: gene tpiA; full length, codon-optimised, E. coli BL21(DE3) delta-tpi; His tag cut by PreScission, extra Gly-Pro-His before Met1; homodimer 54 kDa

HsTPI [2] = biological target: T4, HsTPI (Homo sapiens, UniProt P60174); experiment: residual activity after […] min incubation, coupled assay
T4 construct: gene TPI1; source and expression not described; dimer

SyTPI [3] = biological target: T3, SyTPI; experiment: as above
HsTPI [4] = biological target: T5, HsTPI (Homo sapiens, UniProt P60174, L109T/S106T/V102Y); experiment: activity with / without ornidazole after […] h
T5 construct: gene TPI1; source and expression not described; dimer
T5 sequence (P60174 2-249 V102Y/S106T/L109T): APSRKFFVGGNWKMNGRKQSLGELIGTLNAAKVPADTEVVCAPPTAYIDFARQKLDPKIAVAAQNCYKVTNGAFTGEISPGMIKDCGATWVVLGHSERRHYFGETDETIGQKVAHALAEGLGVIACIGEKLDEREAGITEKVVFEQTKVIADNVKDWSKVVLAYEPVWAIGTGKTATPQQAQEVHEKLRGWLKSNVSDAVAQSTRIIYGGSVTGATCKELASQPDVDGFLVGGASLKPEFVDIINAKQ

T3 sequence (Q59994 whole entry): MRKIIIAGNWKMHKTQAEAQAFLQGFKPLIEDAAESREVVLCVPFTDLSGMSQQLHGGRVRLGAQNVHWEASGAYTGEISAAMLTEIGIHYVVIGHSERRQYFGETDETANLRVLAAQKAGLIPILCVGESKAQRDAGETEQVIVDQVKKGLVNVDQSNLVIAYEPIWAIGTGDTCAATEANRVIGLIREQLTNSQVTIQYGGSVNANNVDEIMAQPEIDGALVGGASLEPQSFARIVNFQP
T1 sequence (Q9SKP6 60-315 limits assumed): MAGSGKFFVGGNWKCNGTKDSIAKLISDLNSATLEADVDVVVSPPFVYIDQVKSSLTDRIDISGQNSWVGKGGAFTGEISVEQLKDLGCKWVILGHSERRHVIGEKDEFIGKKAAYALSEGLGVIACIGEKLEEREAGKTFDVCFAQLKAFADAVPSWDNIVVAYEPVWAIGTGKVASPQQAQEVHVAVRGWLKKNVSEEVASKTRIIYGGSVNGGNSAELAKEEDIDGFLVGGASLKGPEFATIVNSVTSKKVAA
T2 sequence (P48491 whole entry, canonical isoform): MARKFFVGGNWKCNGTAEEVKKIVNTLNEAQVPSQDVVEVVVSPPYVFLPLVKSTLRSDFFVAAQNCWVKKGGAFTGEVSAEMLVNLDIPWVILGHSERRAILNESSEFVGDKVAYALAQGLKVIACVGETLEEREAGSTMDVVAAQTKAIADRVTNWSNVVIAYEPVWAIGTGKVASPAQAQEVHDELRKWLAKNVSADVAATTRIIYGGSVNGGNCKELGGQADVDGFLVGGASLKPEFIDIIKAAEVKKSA
T4 sequence (P60174 2-249): as the sequence (P60174 2-249 V102Y/S106T/L109T) above, with Y101V, T105S, T108L counted along it

| Structure (SMILES) | IC50 (AtpdTPI) | IC50 (AtcTPI) | activity at 500 µM (SyTPI [1]) | activity at 50 µM (HsTPI [2]) | inhibition at 50 µM (SyTPI [3]) | activity at 50 µM (HsTPI [4]) |
| --- | --- | --- | --- | --- | --- | --- |
| CSS(C)(=O)=O [S-methyl methanethiosulfonate] | 18 µM | 0.005 µM | 50% |  |  |  |
| Cc1ncc([N+](=O)[O-])n1CC(O)CCl (stereo not drawn) [ornidazole] |  |  |  | 90% | ~80% | ~60% |
